Experimental data taken from US9695155B2, “Herbicidal substituted pyrimidinyloxy benzene compounds” (E. I. DU PONT DE NEMOURS AND COMPANY, priority 2013, dated 2017).

What was measured:
[1] = tested on: pigweed; assay: Test A postemergence; type: in vivo, Amaranthus retroflexus; details: 0 to 100 scale where 0 is no effect and 100 is complete control
How it was run: (§1)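 Pre- and postemergence greenhouse screen. Soil: loam + sand. Spray carrier: solvent mixture, non-phytotoxic, with surfactant. Post timing at 1–2 leaves, height 2–10 cm. Readout: visual injury on a 0–100 scale roughly 10 days after application, untreated plants as reference.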

[2] = tested on: morningglory; assay: Test A postemergence; type: in vivo, Ipomoea spp.; details: 0 to 100 scale where 0 is no effect and 100 is complete control
How it was run: as §1

[3] = tested on: Heteranthera limosa; assay: Test B flooded paddy test; type: in vivo; details: Flood, 250 g ai/ha; 0 to 100 scale where 0 is no effect and 100 is complete control
How it was run: (§2)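 Evaluation is visual, against untreated controls, 13 to 15 days after treatment. Before treatment, plants reached the 2-leaf stage; pots were then flooded 3 cm deep, compound was added to the water, and that level was maintained. Ratings run 0 to 100, with 100 meaning complete control.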

[4] = tested on: sedge, umbrella; assay: Test B flooded paddy test; type: in vivo, Cyperus difformis; details: Flood, 250 g ai/ha; 0 to 100 scale where 0 is no effect and 100 is complete control
How it was run: as §2

[5] = tested on: chickweed; assay: Test C postemergence; type: in vivo, Stellaria media
How it was run: (§3)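 Plants were kept under greenhouse conditions for 13–15 days following spray. Pre-emergent application went to soil (loam–sand), post-emergent to foliage at 1–4 leaves. Evaluation: visual, percent control against untreated checks.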

[6] = tested on: velvetleaf; assay: Test A preemergence; type: in vivo, Abutilon theophrasti
How it was run: as §1

[7] = tested on: barnyardgrass; assay: Test C postemergence; type: in vivo, Echinochloa crus-galli
How it was run: as §3

[8] = tested on: barnyardgrass; assay: Test B flooded paddy test; type: in vivo, Echinochloa crus-galli; details: Flood, 250 g ai/ha; 0 to 100 scale where 0 is no effect and 100 is complete control
How it was run: as §2

[9] = tested on: pigweed; assay: Test A preemergence; type: in vivo, Amaranthus retroflexus
How it was run: as §1

[10] = tested on: large (Lg) crabgrass; assay: Test C postemergence; type: in vivo, Digitaria sanguinalis
How it was run: as §3

[11] = tested on: corn; assay: Test C postemergence; type: in vivo, Zea mays
How it was run: as §3

[12] = tested on: johnsongrass; assay: Test C postemergence; type: in vivo, Sorghum halepense
How it was run: as §3

[13] = tested on: oilseed rape; assay: Test C postemergence; type: in vivo, Brassica napus
How it was run: as §3

[14] = tested on: wheat, winter; assay: Test C postemergence; type: in vivo, Triticum aestivum
How it was run: as §3

[15] = tested on: waterhemp; assay: Test C postemergence; type: in vivo, Amaranthus rudis
How it was run: as §3

[16] = 16 g ai/ha, postemergence, 0 is no effect, 100 is complete control
[17] = 31 g ai/ha, postemergence, visual rating, scale 0 to 100 (0 no effect, 100 complete control), 13 to 15 days
[18] = 125 g ai/ha, postemergence, visual rating, scale 0 to 100 (0 no effect, 100 complete control)
[19] = Postemergence, 62 g ai/ha, scale 0 to 100 (0 no effect, 100 complete control)
[20] = 500 g ai/ha, 0 to 100 scale where 0 is no effect and 100 is complete control

SMILES: Clc1cnc(Oc2cccc(Cl)c2-n2cc(I)cn2)nc1 [Compound 181]
- Pigweed plant response rating ([1]; 125 g ai/ha): 100
- Plant response rating, Pigweed ([1]; 500 g ai/ha): 100
- Morningglory plant response rating ([2]; 125 g ai/ha): 90
- Plant response rating, Morningglory ([2]; 500 g ai/ha): 100
- Plant response rating, Ducksalad [3]: 75
- Plant response rating, Sedge, Umbrella [4]: 85
- Plant response rating (0 to 100), Chickweed [5, 16]: 55
- Chickweed plant response rating [5, 17]: 75
- Plant response rating, Chickweed [5, 18]: 85
- Plant response rating, Chickweed [5, 19]: 80
- Velvetleaf plant response rating (0 to 100 scale) ([6]; 125 g ai/ha): 20
- Velvetleaf plant response rating [6, 20]: 40
- Plant response rating (0 to 100), Barnyardgrass [7, 16]: 5
- Barnyardgrass plant response rating [7, 17]: 5
- Plant response rating, Barnyardgrass [7, 18]: 10
- Plant response rating, Barnyardgrass [7, 19]: 10
- Plant response rating, Barnyardgrass [8]: 0
- Pigweed plant response rating (0 to 100 scale) ([9]; 125 g ai/ha): 100
- Pigweed plant response rating [9, 20]: 100
- Plant response rating (0 to 100), Crabgrass, Large [10, 16]: 5
- Crabgrass, Large plant response rating [10, 17]: 5
- Plant response rating, Crabgrass, Large [10, 18]: 10
- Plant response rating, Crabgrass, Large [10, 19]: 10
- Plant response rating (0 to 100), Corn [11, 16]: 5
- Corn plant response rating [11, 17]: 5
- Plant response rating, Corn [11, 18]: 5
- Plant response rating, Corn [11, 19]: 5
- Plant response rating (0 to 100), Johnsongrass [12, 16]: 0
- Johnsongrass plant response rating [12, 17]: 5
- Plant response rating, Johnsongrass [12, 18]: 20
- Plant response rating, Johnsongrass [12, 19]: 5
- Plant response rating (0 to 100), Oilseed Rape [13, 16]: 55
- Oilseed Rape plant response rating [13, 17]: 60
- Plant response rating, Oilseed Rape [13, 18]: 100
- Plant response rating, Oilseed Rape [13, 19]: 60
- Plant response rating (0 to 100), Wheat [14, 16]: 0
- Wheat plant response rating [14, 17]: 0
- Plant response rating, Wheat [14, 18]: 5
- Plant response rating, Wheat [14, 19]: 0
- Plant response rating (0 to 100), Waterhemp [15, 16]: 80
- Waterhemp plant response rating [15, 17]: 85
- Plant response rating, Waterhemp [15, 18]: 98
- Plant response rating, Waterhemp [15, 19]: 85
